# Assay results reported in US20100168049A1, “COMBINATION OF MONOSACCHARIDES AND ADENOSINE AND USE THEREOF” (L'OREAL, priority 2008, published 2010).
# How the values were obtained:
# [1] = system: keratinocytes (HaCat line); assay: Proliferation of keratinocytes (Cyquant, Nile red, XTT markers); type: cell-based
# Description: The keratinocytes (HaCat line) are cultured under two conditions: whole defined culture medium (standard condition) and culture medium deficient in growth factors. This deficient medium gives rise to a controlled delay in cell proliferation. Under these conditions, it is then possible to measure the effects of compounds capable of compensating for the deficiency in growth factors of the culture medium and thus of relaunching the cell multiplication and/or of stimulating cell metabolism.
# The keratinocyte proliferation is measured by means of three markers on the same cell population: the level of DNA, which is proportional to the number of cells (Cyquant probe), the level of constituent polar lipids of cell membranes (Nile red probe) and the mitochondrial respiration, which reflects the general cell metabolism (XTT probe).
# type I procollagen = assay: Synthesis of procollagen 1 in reconstructed skin (indirect immunofluorescence); type: cell-based, human; conditions: for procollagen 1 synthesis: reconstructed skin
# Description: Conventional detection via indirect immunofluorescence of type I procollagen in the dermis of the reconstructed skin was also performed on other series of frozen sections (anti-procoll 1 antibody (MAB 1912 Millipore)+FTIC-coupled conjugate (112-095-068 Jackson Immunoresearch)). In order to obtain bearings within the cutaneous architecture during the microscopic examination of the sections, the cell nuclei of the keratinocytes and fibroblasts are localized by staining them with propidium iodide, as described above. Three frozen sections are prepared at random on each reconstructed skin and on each section, and two microscopic fields (25× objective lens) are analysed by fluorescence microscopy and photographed. The levels of fluorescence proportional to the amount of type I procollagen are compared between the control skin and the skin treated with rhamnose.
# [2] = system: dermal fibroblasts of the reconstructed skin; assay: Proliferation of fibroblasts in whole reconstructed skin (propidium iodide nuclei count); type: cell-based, human; conditions: 5 mM; within 48 hours of treatment
# Excerpt: Rhamnose was studied on a model of whole reconstructed skin in order to measure its anti-ageing efficacy on the dermal compartment.
# Briefly, the model of reconstructed skin used is that described by Bell et al. (Bell E. et al., The reconstitution of living skin, J. Invest. Dermatol., 1983, July; 81): it includes a dermal equivalent on which is reconstructed a multistratified epidermis; the dermal equivalent is manufactured from acid-soluble collagen, culture medium containing serum and normal adult human fibroblasts. After 5 days of shrinkage, this equivalent is inoculated with keratinocytes and then cultured for 6 days in immersion and for 7 days in emersion in order to obtain a multistratified and differentiated epidermis having a horny layer.
# The reconstructed skin is treated with 5 mM rhamnose for 2 days and 5 days in the culture medium; after the treatment, the reconstructed skins are included in Tissue Tek in order to produce frozen sections 7 μm thick with a cryostat. […] Three frozen sections are prepared at random on each reconstructed skin; on each section, two microscopic fields (25× objective lens) are analysed by fluorescence microscopy and photographed. The dermal fibroblasts are thus counted for each reconstructed skin on six images in total representing the six microscopic fields considered. […]
smiles,measurement,setting,value
"C[C@H](O)[C@H](O)[C@@H](O)[C@@H](O)C=O [rhamnose, L-rhamnose]",keratinocyte proliferation,[1]; keratinocytes cultured in medium depleted in growth factors,activate keratinocyte proliferation
same,number of cells compared with an untreated control,[1]; medium depleted in growth factor,higher number of cells
same,green fluorescence (proportional to the amount of type I procollagen) vs control skin,"type I procollagen; 1 mM, 120 hours",marked increase
same,synthesis of type I procollagen by the fibroblasts,"type I procollagen; 1 mM, 120 hours",greatly stimulated
same,procollagen 1 synthesis,type I procollagen; 1 mM,stimulation of procollagen 1 synthesis
same,procollagen 1 synthesis,type I procollagen; 5 mM,stimulation of procollagen 1 synthesis
same,growth of the dermal fibroblasts,[2],stimulation of growth
